# Columns and labels:
# Type in all cases: physicochemical
# [1] = Miscibility with solvents, visual evaluation at 5 wt %; parameters: key: ⊚: dissolves at room temperature; ◯: dissolves when heated for 5 minutes at 40° C.; Δ: dissolves under heating, but cooling precipitates crystals; X: does not dissolve; conditions: complex added at 5 wt %
# Protocol: (§1) The miscibility of the rare earth complex with various media was evaluated as follows.
# 1) Miscibility with Solvents
# [2] = Luminescence quantum yield and luminescence intensity in solution; conditions: acetonitrile solution; for Relative luminescence intensity: Eu 0.05 mol/L, relative to Eu(PMS)3 (Comparative Example 7) = 1; for Luminescence quantum yield: europium ion 0.05 mol/L, excitation 465 nm, luminescence 612 nm
# Protocol: (§2) The intensity of luminescence and the luminescence quantum yield, the quotient of dividing the number of photons emitted from a sample by the number of photons absorbed into the sample, were measured with an SS-25 from JASCO Corporation.
# The luminescence quantum yield of an acetonitrile solution of the Eu(PMS)3(TPPO)8 obtained in Example 1 (europium ion concentration: 0.05 mol/L) was measured (excitation wavelength: 465 nm, maximum luminescence wavelength: 612 nm, luminescence wavelength used in measurement: 612 nm).
# The solutions prepared in Examples 12 to 14 and Comparative Examples 7 to 9 and Comparative Example B were measured for luminescence intensity at the respective maximum luminescence wavelengths.
# The relative luminescence intensity of the solutions used in Examples 12 to 14 and Comparative Example B: (luminescence intensity in each of Examples 12 to 14)/(luminescence intensity in Comparative Example 7) was calculated, letting 1 be the luminescence intensity in Comparative Example 7 (solution of a rare earth complex in which the ligand Z was not coordinated).
# Similarly, the relative luminescence intensity in Comparative Example 9: (luminescence intensity in Comparative Example 9)/(luminescence intensity in Comparative Example 8) was calculated, letting 1 be the luminescence intensity in Comparative Example 8 (solution of a known β-diketone-type of rare earth complex in which the ligand Z was not coordinated). The relative luminescence intensity of the solution used in Comparative Example B was 1.6 times.
# The luminescence quantum yield of an acetone-d6 solution of the Nd(PMS)3(TPPO)8 obtained in Example 2 (neodymium ion concentration: 0.05 mol/L) was measured (excitation wavelength: 585 nm, maximum luminescence wavelength: 1064 nm, luminescence wavelength used in measurement: 1064 nm).
# The solutions prepared in Examples 15 and 16 and Comparative Examples 10 were measured for luminescence intensity at the respective maximum luminescence wavelengths. The relative luminescence intensity in Examples 15 and 16: (luminescence intensity in each of Examples 15 and 16)/(luminescence intensity in Comparative Example 10) was calculated, letting 1 be the luminescence intensity in Comparative Example 10 (rare earth complex in which the ligand Z was not coordinated).
# [3] = Miscibility with a polymer matrix, visual evaluation; parameters: key to Miscibility, PMMA: ⊚: dissolves up to 30 wt %; ◯: dissolves up to 5 wt %; Δ: disperses up to 5 wt %, but there is turbidity; X: repelled at the polymer surface
# Protocol: as §1
# 2) Miscibility with a Polymer Matrix
# The rare earth complex serving as the sample was added in the concentrations listed with the evaluation criteria below relative to various media, and the miscibility was visually evaluated according to the following criteria. • ⊚: dissolves up to 30 wt % • ◯: dissolves up to 5 wt % • Δ: disperses up to 5 wt %, but there is turbidity • X: repelled at the polymer surface
# [4] = Mechanoluminescence of polycarbonate film hit with a metal rod; conditions: polycarbonate film about 6 μm thick, visual
# Protocol: The rare earth ternary complex of the present invention can be used as a mechanoluminescence material. The term mechanoluminescence as used here refers to a phenomenon whereby physical force (such as pressure, vibration energy or the like) imparted to the rare earth ternary complex is converted into optical energy, causing the complex to emit light.
# A 50 mg quantity of the Eu(PMS)3(Phen)m obtained in Example 8 and 450 mg of polycarbonate were dissolved in 3 mL of methylene chloride and then uniformly stirred to obtain a polymer solution. This polymer solution was then cast onto a glass plate, after which it was dried in vacuo overnight to remove the solvent, forming a polycarbonate film containing Eu(PMS)3(Phen)m, which is about 6 μm thick, on the glass plate.
# A polycarbonate film containing Eu(PMS)3, which is about 6 μm thick, was formed on a glass plate in the same manner as in Example 22, except that 42 mg of the Eu(PMS)3 prepared in Producing Example 1 was used instead of Eu(PMS)3 (Phen) m.
# [5] = Number of moles of bound water per mole of complex (TG-DTA); conditions: for Bound water (number of moles of bound water per mole of complex): Table 1, dried samples for the ternary complexes
# Protocol: The number of moles of bound water per mole of complex was measured using a TG-DTA 2000 from MAC Science.
# A 20 g quantity of Eu(PMS)3 was added to 100 mL of isopropanol, then 43 g ([…] the molar amount of the Eu(PMS)3) of triphenylphosphine oxide (hereinafter referred to as TPPO) was added, and the system was refluxed for 3 hours, and then gradually cooled. The resulting white powder was filtered off. The white powder thus obtained was washed with hot n-hexane, and recrystallized with water-methanol to obtain 44 g of Eu(PMS)3(TPPO)8 in the form of white acicular crystals (yield: 85%). The TG-DTA was measured for these crystals, and it was found from the weight reduction at 100° C. that the number of moles of bound water per mole of complex was 2.93. The IR, NMR, UV absorption characteristics, and elemental analysis results for the obtained Eu(PMS)3(TPPO)8(H2O)2.93 are given below.
# Eu(PMS)3(TPPO)8(H2O)2.93 obtained by the above synthesis method was dried in vacuo for 3 hours at 140° C. and a reduced pressure of […]. TG-DTA measurement for the resulting white powder was carried out to obtain a weight reduction at 100° C. It was found from the obtained value that the number of moles of bound water per mole of complex was 0.18.
# [6] = Luminescence quantum yield and luminescence intensity in PMMA polymer matrix composition; conditions: PMMA rod; for Relative luminescence intensity: Eu 0.7 wt %, relative to Eu(PMS)3 (Comparative Example 11) = 1; for Luminescence quantum yield: rare earth ion 0.7 wt %, excitation 465 nm, luminescence 612 nm
# Protocol: as §2
# A 1 mL quantity of refined anhydrous methyl methacrylate (MMA), 0.5 mg of AIBN, and 148 mg (0.7 wt %) as the rare earth ion concentration) of the Eu (PMS)3 (TPPO)8 obtained in Example 1 were mixed, the mixture was transferred to a Pyrex tube, and the inside of the tube was deaerated and then sealed. By reacting for 5 hours at 60° C., the polymerization of MMA was carried out. The resulting PMMA containing Eu(PMS)3 (TPPO)8 was taken out of the Pyrex tube, and a rod-shaped polymer matrix composition was obtained.
# (§3) The polymer matrix compositions prepared in Examples 17 to 19 and Comparative Example 11 were measured for luminescence intensity at the respective maximum luminescence wavelengths. The relative luminescence intensity in Examples 17 to 19: (luminescence intensity in each of Examples 17 to 19)/(luminescence intensity in Comparative Example 11) was calculated, letting 1 be the luminescence intensity in Comparative Example 11 (rare earth complex in which the ligand Z was not coordinated).
# A rod-shaped polymer matrix composition containing […] was obtained in the same manner as in Example 17, except that 148 mg (rare earth ion concentration: 0.7 wt %) of the Nd(PMS)3 (TPPO)8 obtained in Example 2 was used instead of Eu(PMS)3 (TPPO)8.
# as §3, with “20 and 21” for “17 to 19”, “12” for “11”, “20 and 21:” for “17 to 19:”, “20 and 21)/(luminescence” for “17 to 19)/(luminescence”, “12)” for “11)”
# [7] = after drying in vacuo at 140° C.
# [8] = before drying (crystals as obtained), weight reduction at 100° C.
Compound,"Miscibility, Acetone [1]","Miscibility, Chloroform [1]","Miscibility, Toluene [1]","Miscibility, Water [1]",Relative luminescence intensity [2],Luminescence quantum yield [2] [%],"Miscibility, Epoxy resin [3]","Miscibility, Nafion [3]","Miscibility, PMMA [3]",Light emission when film is hit with a metal rod (mechanoluminescence) [4],Bound water (number of moles of bound water per mole of complex) [5],"Number of moles of bound water per mole of complex [5, 7]","Number of moles of bound water per mole of complex [5, 8]",Relative luminescence intensity [6],Luminescence quantum yield [6] [%]
O=S(=O)([N-]S(=O)(=O)C(F)(F)F)C(F)(F)F.O=S(=O)([N-]S(=O)(=O)C(F)(F)F)C(F)(F)F.O=S(=O)([N-]S(=O)(=O)C(F)(F)F)C(F)(F)F.[Eu+3].c1cnc2c(c1)ccc1cccnc12.c1cnc2c(c1)ccc1cccnc12.c1cnc2c(c1)ccc1cccnc12.c1cnc2c(c1)ccc1cccnc12 [Eu(PMS)3(Phen)m],⊚,Δ,Δ,X,49.5,5.1,◯ (dissolves up to 5 wt %),◯ (dissolves up to 5 wt %),◯ (dissolves up to 5 wt %),emits red light,0.00,water had been completely removed,3.06,5566,–
"O=S(=O)([N-]S(=O)(=O)C(F)(F)F)C(F)(F)F.O=S(=O)([N-]S(=O)(=O)C(F)(F)F)C(F)(F)F.O=S(=O)([N-]S(=O)(=O)C(F)(F)F)C(F)(F)F.[Eu+3] [Eu(PMS)3, reference compound]",⊚,X,X,⊚,1.0,5.0,"Δ (disperses up to 5 wt %, but there is turbidity)","Δ (disperses up to 5 wt %, but there is turbidity)",X,no light emission was noted,2.08,–,–,1.0,2.5
O=P(c1ccccc1)(c1ccccc1)c1ccccc1.O=P(c1ccccc1)(c1ccccc1)c1ccccc1.O=P(c1ccccc1)(c1ccccc1)c1ccccc1.O=P(c1ccccc1)(c1ccccc1)c1ccccc1.O=P(c1ccccc1)(c1ccccc1)c1ccccc1.O=P(c1ccccc1)(c1ccccc1)c1ccccc1.O=P(c1ccccc1)(c1ccccc1)c1ccccc1.O=P(c1ccccc1)(c1ccccc1)c1ccccc1.O=S(=O)([N-]S(=O)(=O)C(F)(F)F)C(F)(F)F.O=S(=O)([N-]S(=O)(=O)C(F)(F)F)C(F)(F)F.O=S(=O)([N-]S(=O)(=O)C(F)(F)F)C(F)(F)F.[Eu+3] [Eu(PMS)3(TPPO)8],⊚,⊚,◯,X,45.1,5.6,◯ (dissolves up to 5 wt %),◯ (dissolves up to 5 wt %),◯ (dissolves up to 5 wt %),–,0.18,0.18,2.93,15466,19.0
O=S(=O)([N-]S(=O)(=O)C(F)(F)F)C(F)(F)F.O=S(=O)([N-]S(=O)(=O)C(F)(F)F)C(F)(F)F.O=S(=O)([N-]S(=O)(=O)C(F)(F)F)C(F)(F)F.O=S(c1ccccc1)c1ccccc1.O=S(c1ccccc1)c1ccccc1.O=S(c1ccccc1)c1ccccc1.O=S(c1ccccc1)c1ccccc1.O=S(c1ccccc1)c1ccccc1.O=S(c1ccccc1)c1ccccc1.O=S(c1ccccc1)c1ccccc1.O=S(c1ccccc1)c1ccccc1.[Eu+3] [Eu(PMS)3(DPSO)8],⊚,◯,◯,X,41.7,32.0,◯ (dissolves up to 5 wt %),◯ (dissolves up to 5 wt %),◯ (dissolves up to 5 wt %),–,0.00,–,water was not coordinated,710,39.0
